Test results reported in patent publication US20110281944A1, “METHOD OF A RHEIN COMPOUND FOR INHIBITING PANCREATIC ISLET BETA-CELL DYSFUNCTION AND PREVENTING OR TREATING A PANCREATIC ISLET BETA-CELL DYSFUNCTION RELATED DISORDER” (Research Institute of Nephrology of Nanjing PLA, China, priority 2010, published 2011).
“And” between values parts separate entries of the source, which are not always exact repeats. Equal entries are not always repeated. “Also recorded” adds a separate entry of the source.

Experiments:
[1] = tested on: pancreatic islet β-cells of obese rats; test: Insulin expression in pancreatic islets of obese rats; type: in vivo, Wistar rats; conditions: rhein for 4 weeks, vs obese control group
Excerpt: (§1) Experimental animals: Insulin-resistant obese rats are 4-week in-bred female Wistar rats induced by feeding with high-sugar high-fat feedstuff (20% sugar, 10% lard, 2.5% cholesterol, 1% cholic acid and 66.5% normal feedstuff) for 3 weeks.
(§2) Administration to the experimental animals: Thirty insulin-resistant obese rats are randomly assigned to treatment group and control group. Additional fifteen normal Wistar rats of 7 week old are used as normal control group. The treatment group of insulin-resistant obese rats is treated with rhein (100 mg/Kg, dissolved in 0.1% cellulose sodium) by gavage for continuous 4 weeks. The insulin-resistant obese control group and the normal control group are administrated with 0.1% cellulose sodium by gavage.

[2] = tested on: pancreatic islets of type 2 diabetic db/db mice; test: Pancreatic islet isolation and perfusion, first phase insulin secretion; type: ex vivo
Experimental: (§3) The agents and animals used in this example are the same as those used in example 1.
Experimental methods: After 8 weeks of administration, 5 mice are randomly selected from each group for pancreatic islet isolation and perfusion as follows. After anesthesia, the opening of common bile duct at duodenal papilla for each animal is clamped in vivo. 2 ml IV type collagenase is injected at the concentration of 1 mg/ml after performing common bile duct puncture under a stereoscopic microscope. After entering the pancreatic duct reversely to expand the pancreas, the pancreas is rapidly removed. The pancreas is placed in Hank's buffer containing 1 mg/ml collagenase and digested for 40 min to remove the collagens, and then washed under vibration for several times. Pancreatic islets are successfully isolated under microscopy. The pancreatic islets are incubated in a CO2 incubator for 2 hour with 50 islets per group, and then the islets are placed into a specially manufactured constant-temperature perfusion equipment. The […] are perfused with 2.8 mM glucose using a Harvard micro-pump at 0.5 ml/min for glucose starvation perfusion, and after 30 min, perfusion of high glucose (16.7 Mm) is performed at 1 ml/min. […] The first phase insulin secretion and dynamic secretion level of insulin are reflected from the curve of insulin levels measured.

[3] = Oral absorption kinetics and pharmacokinetics of rhein in rats; type: in vivo, Wistar rats
Experimental: Grouping of the animals and experimental procedure: Eighteen Wistar rats (male: female=1:1; body weight=180˜210 g) are randomly divided into 3 groups, 6 animal each group (male 3, female 3). The animals are fastened but supplied with free water for 10 h, and then are administrated ig with 35 mg/kg, 70 mg/kg or 140 mg/kg rhein. Blood samples are collected from carotid artery cannula at 0.033 h, 0.083 h, 0.25 h, 0.5 h, 0.75 h, 1 h, 2 h, 3 h, 4 h, 6 h, 8 h, 12 h and 14 h after administration, and centrifuged. 50 μl plasma is used for HPLC-fluorescence (FLD) analysis. The obtained plasma rhein concentration-time data are used for calculating pharmacokinetic parameters via corresponding pharmacokinetic programmes.

[4] = tested on: pancreatic islet β-cells of db/db mice; test: Immunohistochemical insulin staining and metrology analysis of pancreatic islets (β-cell amount); type: in vivo; conditions: administration for 8 weeks
Experimental: as §3
Experimental methods: Immunohistochemical assay. The mice are anaesthetized with phenobarbital sodium, perfused with physiological saline via heart, and fixed with 4% polyoxymethylene. The pancreas are removed, and then placed in 4% polyoxymethylene for 4-6 hours, embedded in paraffin, and sliced into a thickness of 5 um. The slices are dewaxed with xylene, rehydrated with ethanol at different gradient concentrations, and then treated with 0.3% hydrogen peroxide at room temperature for 20 min, so as to block the activity of endogenous peroxidase. The samples are treated with steams at 121° C. under high pressure for 10 min for repairing the antigen. 10% goat serum is added for blocking non-specific antigens. Rabbit-anti-mouse insulin antibody is added, and reacted at 4° C. overnight for 14 hours. […]
Metrology analysis of pancreatic islets: All of the slices are observed with optical microscope E800 (Nikon, Japan), and photographed with a digital camera (Sony, Japan) connected with the microscope. The digital photographs are obtained via Axiovision 4.3 software, and analyzed with Image-Pro Plus 5.0.1. Fifteen pancreatic islet photographs are randomly selected for each mouse, and at least 50 pancreatic islet photographs are analyzed for each group. […]

[5] = tested on: type 2 diabetic db/db mice; test: Intraperitoneal glucose tolerance test (IPGTT) on db/db mice after treatment with rhein for 8 weeks; type: in vivo; conditions: rhein 120 mg/Kg gavage 8 weeks
Experimental: Administration to the experimental animals: Thirty diabetic db/db mice of 4 week old are randomly assigned to treatment group and control group. Additional fifteen normal db/m mice of 4 week old are used as normal control group. The treatment group of diabetic db/db mice is treated with rhein (120 mg/Kg, dissolved in 0.1% cellulose sodium) by gavage for continuous 8 weeks. The diabetic control group of db/db mice and the normal control group of db/m mice are administrated 0.1% cellulose sodium by gavage.
Experimental methods: The intraperitoneal glucose tolerance test (IPGTT) is carried out on the mice after administration for 8 weeks. The mice are fasted overnight, and then are administrated by i.p. injection of glucose at 0.5 g/kg body weight. Blood is collected at 0, 30, 60 and 120 min for detecting whole blood glucose level and insulin level and calculating the area under the curve (AUC) of insulin. The area under the curve of insulin during 0˜30 min (AUCINS0.30) is calculated as: (insulin level at 30 min[…]insulin level at 0 min)×15, for evaluating the ability of early phase insulin secretion.

[6] = tested on: insulin-resistant obese rats; test: Hyperglycemic clamp in obese rats after treatment with rhein for 4 weeks; type: in vivo, Wistar rats
Excerpt: as §1, §2

[7] = rhein 100 mg/Kg by gavage for 4 weeks

Plasma rhein concentration ([3]; gavage 35 mg/kg, 0.033 h, mean (X) of 6 rats): 14.79 µg/mL
Plasma rhein concentration ([3]; gavage 35 mg/kg, 0.083 h, mean (X) of 6 rats): 27.67 µg/mL
Plasma rhein concentration ([3]; gavage 35 mg/kg, 0.25 h, mean (X) of 6 rats): 34.95 µg/mL
Plasma rhein concentration ([3]; gavage 35 mg/kg, 0.50 h, mean (X) of 6 rats): 29.80 µg/mL
Plasma rhein concentration ([3]; gavage 35 mg/kg, 0.75 h, mean (X) of 6 rats): 28.21 µg/mL
Plasma rhein concentration ([3]; gavage 35 mg/kg, 1.0 h, mean (X) of 6 rats): 23.50 µg/mL
Plasma rhein concentration ([3]; gavage 35 mg/kg, 2.0 h, mean (X) of 6 rats): 8.45 µg/mL
Plasma rhein concentration ([3]; gavage 35 mg/kg, 3.0 h, mean (X) of 6 rats): 4.01 µg/mL
Plasma rhein concentration ([3]; gavage 35 mg/kg, 4.0 h, mean (X) of 6 rats): 3.30 µg/mL
Plasma rhein concentration ([3]; gavage 35 mg/kg, 6.0 h, mean (X) of 6 rats): 2.19 µg/mL
Plasma rhein concentration ([3]; gavage 35 mg/kg, 8.0 h, mean (X) of 6 rats): 1.86 µg/mL
Plasma rhein concentration ([3]; gavage 35 mg/kg, 12.0 h, mean (X) of 6 rats): 0.60 µg/mL
Plasma rhein concentration ([3]; gavage 35 mg/kg, 14.0 h, mean (X) of 6 rats): 0.35 µg/mL
Plasma rhein concentration ([3]; gavage 70 mg/kg, 1.0 h, mean (x) of 6 rats): 36.00 µg/mL
Plasma rhein concentration ([3]; gavage 70 mg/kg, 2.0 h, individual rats 1-6, 70 mg/kg): 13.29 µg/mL and 34.33 µg/mL
AUC ([3]; ig 35 mg/kg): 69.52 ± 9.13 µg·h/mL
actually-measured peak time ([3]; ig 35 mg/kg): 0.42 ± 0.26 h
calculated half life ([3]; ig 35 mg/kg): 3.22 ± 1.21 h
peak concentration ([3]; ig 35 mg/kg): 37.96 ± 12.87 µg/mL
AUC ([3]; ig 70 mg/kg): 164.29 ± 44.77 µg·h/mL
actually-measured peak time ([3]; ig 70 mg/kg): 0.50 ± 0.27 h
calculated half life ([3]; ig 70 mg/kg): 3.68 ± 1.42 h
peak concentration ([3]; ig 70 mg/kg): 54.64 ± 11.60 µg/mL
AUC ([3]; ig 140 mg/kg): 237.75 ± 42.81 µg·h/mL
actually-measured peak time ([3]; ig 140 mg/kg): 0.38 ± 0.14 h
calculated half life ([3]; ig 140 mg/kg): 4.30 ± 1.55 h
peak concentration ([3]; ig 140 mg/kg): 67.17 ± 14.62 µg/mL
pharmacokinetics in the tested dosage range (dose linearity) ([3]; ig 35-140 mg/kg): approximately linear
Structure (SMILES): O=C(O)c1cc(O)c2c(c1)C(=O)c1cccc(O)c1C2=O [rhein]
insulin expression level in the islets [1]: significantly improves the insulin expression level in the islets
insulin level after high glucose stimulation relative to basal level ([2]; islets of rhein-treated db/db mice, high glucose 16.7 mmol/L for 1 min): 7 times as high as basal level
first phase insulin secretion ([2]; type 2 diabetic db/db mice, pancreatic islet perfusion): significantly improves the first phase insulin secretion; also recorded: increases the first phase insulin secretion
Plasma rhein concentration ([3]; gavage 35 mg/kg, 0.033 h, individual rats 1-6, 35 mg/kg): 15.34 µg/mL and 19.11 µg/mL and 10.10 µg/mL and 10.54 µg/mL and 24.21 µg/mL and 9.45 µg/mL
Plasma rhein concentration ([3]; gavage 35 mg/kg, 0.083 h, individual rats 1-6, 35 mg/kg): 22.07 µg/mL and 44.52 µg/mL and 22.33 µg/mL and 16.18 µg/mL and 40.94 µg/mL and 19.99 µg/mL
Plasma rhein concentration ([3]; gavage 35 mg/kg, 0.25 h, individual rats 1-6, 35 mg/kg): 27.43 µg/mL and 45.05 µg/mL and 26.00 µg/mL and 26.86 µg/mL and 59.77 µg/mL and 24.59 µg/mL
Plasma rhein concentration ([3]; gavage 35 mg/kg, 0.50 h, individual rats 1-6, 35 mg/kg): 22.01 µg/mL and 22.71 µg/mL and 28.87 µg/mL and 26.88 µg/mL and 55.32 µg/mL and 22.99 µg/mL
Plasma rhein concentration ([3]; gavage 35 mg/kg, 0.75 h, individual rats 1-6, 35 mg/kg): 18.92 µg/mL and 18.72 µg/mL and 35.43 µg/mL and 35.51 µg/mL and 45.07 µg/mL and 15.62 µg/mL
Plasma rhein concentration ([3]; gavage 35 mg/kg, 1.0 h, individual rats 1-6, 35 mg/kg): 19.13 µg/mL and 19.96 µg/mL and 21.75 µg/mL and 27.32 µg/mL and 37.07 µg/mL and 15.78 µg/mL
Plasma rhein concentration ([3]; gavage 35 mg/kg, 2.0 h, individual rats 1-6, 35 mg/kg): 8.25 µg/mL and 4.26 µg/mL and 7.88 µg/mL and 7.44 µg/mL and 7.45 µg/mL and 15.41 µg/mL
Plasma rhein concentration ([3]; gavage 35 mg/kg, 3.0 h, individual rats 1-6, 35 mg/kg): 4.03 µg/mL and 4.23 µg/mL and 4.39 µg/mL and 4.04 µg/mL and 2.99 µg/mL and 4.38 µg/mL
Plasma rhein concentration ([3]; gavage 35 mg/kg, 4.0 h, individual rats 1-6, 35 mg/kg): 3.98 µg/mL and 4.16 µg/mL and 1.70 µg/mL and 3.75 µg/mL and 1.31 µg/mL and 4.91 µg/mL
Plasma rhein concentration ([3]; gavage 35 mg/kg, 6.0 h, individual rats 1-6, 35 mg/kg): 3.08 μg/ml (2×) and 2.69 μg/ml and 2.89 μg/ml and 0.57 μg/ml and 0.86 μg/ml
Plasma rhein concentration ([3]; gavage 35 mg/kg, 8.0 h, individual rats 1-6, 35 mg/kg): 4.99 µg/mL and 0.75 µg/mL and 1.94 µg/mL and 2.05 µg/mL and 1.07 µg/mL and 0.34 µg/mL
Plasma rhein concentration ([3]; gavage 35 mg/kg, 12.0 h, individual rats 1-6, 35 mg/kg): 0.58 μg/ml and 0.18 μg/ml and 1.13 μg/ml and 1.35 μg/ml and ND (Lower than the minimal detectable concentration 0.13 μg/ml) and 0.36 μg/ml
Plasma rhein concentration ([3]; gavage 35 mg/kg, 14.0 h, individual rats 1-6, 35 mg/kg): 0.51 μg/ml and ND (Lower than the minimal detectable concentration 0.13 μg/ml) (3×) and 0.50 μg/ml and 0.56 μg/ml
Plasma rhein concentration ([3]; gavage 70 mg/kg, 1.0 h, individual rats 1-6, 70 mg/kg): 30.42 µg/mL and 40.86 µg/mL and 29.41 µg/mL and 35.89 µg/mL and 20.75 µg/mL and 58.65 µg/mL
insulin expression level in the pancreatic islets (insulin staining) ([4]; vs db/db control group): significantly enhances insulin expression level in the pancreatic islets
amount (mass) of pancreatic islet β-cells ([4]; vs untreated db/db): increases the mass of pancreatic islet β-cells; also recorded: significantly reduces the loss of pancreatic islet β-cells
AUC-glucose [5]: 1834 ± 151
AUC-insulin [5]: 812 ± 80
AUCINSO-30 (AUC of insulin within 0-30 min) [5]: 63 ± 32
Blood glucose ([5]; 0 min): 7.6 ± 0.7 mmol/L
plasma insulin ([5]; 0 min): 5.3 ± 0.7 µg/L
Blood glucose ([5]; 30 min): 19.5 ± 1.5 mmol/L
plasma insulin ([5]; 30 min): 9.5 ± 1.9 µg/L
Blood glucose ([5]; 60 min): 18.3 ± 2.0 mmol/L
plasma insulin ([5]; 60 min): 6.0 ± 0.7 µg/L
Blood glucose ([5]; 120 min): 10.4 ± 1.1 mmol/L
plasma insulin ([5]; 120 min): 5.9 ± 0.6 µg/L
FBG (fasting blood glucose) [6, 7]: 5.3 ± 0.5 mmol/L
SSBG (steady state blood glucose) [6, 7]: 14.9 ± 0.8 mmol/L
GIR (glucose infusion rate) ([6]; rhein 100 mg/Kg by gavage for 4 weeks, Table 1): 32.2 ± 2.9 mg/kg/min
glucose infusion rate (GIR) at steady-state ([6]; treatment with rhein for 4 weeks): 26.1 ± 2.9 mg/kg/min
